For 20 compounds, Ki and GI50 results are on record in ChEMBL document CHEMBL3608255 (ACS Med Chem Lett, 2015).

Assay [1] has as its target Bromodomain-containing protein 4 (Homo sapiens, UniProt O60885). The assay can be described thus: Binding affinity to BRD4 (unknown origin) expressed in Escherichia coli BL21 after 1 hr by proprietary competition assay.
The subject of assay [2] is MV4-11. The assay is described as follows: Cytotoxicity against human MV4-11 cells after 24 hrs by CellTiter-Blue assay. The class given is functional. The note with it: MV4-11, 24 h. (In general: Alamar Blue is a resazurin reagent that responds to reducing activity.)
In assay [3] the target is Serine/threonine-protein kinase PLK1 (Homo sapiens, UniProt P53350). The assay is described as follows: Binding affinity to PLK1 (unknown origin) expressed in HEK293 cells after 1 hr by proprietary competition assay. It counts as cell-based.

By Ki is commonly meant a measure of affinity in units of concentration, obtained from inhibition or displacement. A higher Ki goes with a looser hold on the target. By GI50 is commonly meant the concentration giving 50% growth inhibition. High values mean lower sensitivity of the cells, low ones greater sensitivity of the cells.

Each structure is given as a SMILES string. A value given as a limit tells only on which side of the number the result lay.

Sequence of Serine/threonine-protein kinase PLK1 (P53350 whole entry): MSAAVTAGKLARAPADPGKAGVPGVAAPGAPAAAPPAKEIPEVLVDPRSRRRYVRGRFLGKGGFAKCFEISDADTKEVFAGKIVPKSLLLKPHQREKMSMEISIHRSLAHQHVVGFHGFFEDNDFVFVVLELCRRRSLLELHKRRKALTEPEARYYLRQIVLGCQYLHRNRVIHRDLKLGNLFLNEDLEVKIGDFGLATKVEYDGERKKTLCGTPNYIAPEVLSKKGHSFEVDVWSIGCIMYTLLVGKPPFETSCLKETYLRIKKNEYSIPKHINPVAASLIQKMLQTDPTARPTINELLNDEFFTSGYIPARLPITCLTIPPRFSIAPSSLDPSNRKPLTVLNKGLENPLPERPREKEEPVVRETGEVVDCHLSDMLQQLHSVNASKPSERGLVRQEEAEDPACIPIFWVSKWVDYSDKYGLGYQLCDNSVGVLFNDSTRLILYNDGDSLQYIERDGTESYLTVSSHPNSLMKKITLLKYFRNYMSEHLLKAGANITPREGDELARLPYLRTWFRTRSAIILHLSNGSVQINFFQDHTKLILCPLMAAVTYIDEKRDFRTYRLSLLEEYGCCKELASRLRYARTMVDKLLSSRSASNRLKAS

On to `CC[C@@H]1C(=O)Nc2cnc(Nc3ccc(C(=O)NC4CCN(C)CC4)cc3OC)nc2N1C1CCCC1`, for which affinity in assay [1] was put at a Ki of 7950 nM. In assay [2], this compound returned a 50% growth inhibitory concentration (GI50) of 219 nM.
Turning to `CC[C@@H]1C(=O)N(C)c2cnc(Nc3ccc(C(=O)NC4CCN(C)CC4)cc3OC)nc2N1Cc1cccc(Br)c1`, the Ki came to 8.7 nM in assay [1] and 5.8 nM in assay [3]. This compound also had a GI50 in assay [2] of 675 nM.
For `CC[C@@H]1C(=O)N(C)c2cnc(Nc3ccc(C(=O)NC4CCN(C)CC4)cc3F)nc2N1C1CCCC1`, the Ki in assay [1] is 46 nM. The compound further gave a GI50 in assay [2] of 4 nM.
As for `COc1cc(C(=O)NC2CCN(C)CC2)ccc1Nc1ncc2c(n1)N(C1CCCC1)[C@H](Cc1ccccc1)C(=O)N2C`, the Ki was greater than 10000 nM in assay [1] and 4.2 nM in assay [3]. This compound displayed a 50% growth inhibitory concentration (GI50) in assay [2] of 1870 nM.
Regarding `CC[C@@H]1C(=O)N(C)c2cnc(Nc3ccc(C(=O)NC4CCN(C)CC4)cc3OCc3ccccc3)nc2N1C1CCCC1`, in assay [1], the Ki is 100 nM. In assay [2], this compound had a GI50 of 356 nM.
The like results for `CC[C@@H]1C(=O)N(C)c2cnc(Nc3ccc(C(=O)NC4CCN(C)CC4)cc3OCC(C)C)nc2N1C1CCCC1` were, in that order, 29 nM and 154 nM.
The like results for `CC[C@@H]1C(=O)N(CC(C)C)c2cnc(Nc3ccc(C(=O)NC4CCN(C)CC4)cc3OC)nc2N1C1CCCC1` were, in that order, greater than 10000 nM and 2530 nM.
The like results for `CC[C@@H]1C(=O)N(Cc2ccccc2)c2cnc(Nc3ccc(C(=O)NC4CCN(C)CC4)cc3OC)nc2N1C1CCCC1` were, in that order, greater than 10000 nM and 7280 nM.
As to `CC[C@@H]1C(=O)N(C(C)C)c2cnc(Nc3ccc(C(=O)NC4CCN(C)CC4)cc3OC)nc2N1C1CCCC1`, the inhibitory constant (Ki) in assay [1] is 4500 nM. Besides, the GI50 in assay [2] was 2670 nM.
For `C[C@@H](Oc1cc(-n2cnc3ccc(CN4CCN(C)CC4)cc32)sc1C(N)=O)c1ccccc1C(F)(F)F` [GSK-461364], the concentration for 50% growth inhibition (GI50) in assay [2] is 679 nM.
As for `CC[C@@H]1C(=O)N(C)c2cnc(Nc3ccc(C(=O)NC4CCN(C)CC4)cc3OC3CCCC3)nc2N1C1CCCC1`, the inhibition constant Ki in assay [1] was found to be 27 nM; in assay [3], 0.84 nM. The compound further had a GI50 in assay [2] of 240 nM.
The like results for `CC[C@@H]1C(=O)N(CC)c2cnc(Nc3ccc(C(=O)NC4CCN(C)CC4)cc3OC)nc2N1C1CCCC1` were, in that order, 470 nM, 0.91 nM and 392 nM.
`CC[C@@H]1C(=O)N(C)c2cnc(Nc3ccc(C(=O)NC4CCN(C)CC4)cc3OC)nc2N1C1CCCC1` [BI-2536] displayed a 50% growth inhibitory concentration (GI50) in assay [2] of 15.2 nM.
`CC[C@@H]1C(=O)N(C)c2cnc(Oc3ccc(C(=O)NC4CCN(C)CC4)cc3OC)nc2N1C1CCCC1`: the Ki in assay [1] stood at 99 nM; in assay [3] it was 240 nM. The compound further had a 50% growth inhibitory concentration (GI50) in assay [2] of 1340 nM.
For `CC[C@@H]1C(=O)N(C)c2cnc(Nc3ccc(C(=O)NC4CCN(C)CC4)cc3)nc2N1C1CCCC1`, affinity in assay [1] was put at a Ki of 60 nM. This compound also registered a GI50 in assay [2] of 3 nM.
The like results for `COc1cc(C(=O)NC2CCN(C)CC2)ccc1Nc1ncc2c(n1)N(C1CCCC1)CC(=O)N2C` were, in that order, 1400 nM and 219 nM.
Turning to `CC[C@@H]1C(=O)N(C)c2cnc(Nc3ccc(C(=O)NC4CCN(C)CC4)cc3OC)nc2N1CC(C)C`, the Ki was 970 nM in assay [1] and 6.95 nM in assay [3]. The compound further came in with a GI50 in assay [2] of 40 nM.
In assay [2], `CC[C@H]1C(=O)N(C)c2cnc(Nc3ccc(C(=O)NC4CCN(C)CC4)cc3OC)nc2N1C1CCCC1` yielded a 50% growth inhibitory concentration (GI50) of 19 nM.
On the same count and under the same terms, next, `Cc1sc2c(c1C)C(c1ccc(Cl)cc1)=N[C@@H](CC(=O)OC(C)(C)C)c1nnc(C)n1-2`: 80 nM.
Regarding `CC[C@@H]1C(=O)N(C)c2cnc(Nc3ccc(C(=O)NC4CCN(C)CC4)c(OC)c3)nc2N1C1CCCC1`, the values for the Ki in assay [1] and in assay [3] were 37 nM and 0.52 nM, respectively. Besides, in assay [2], the 50% growth inhibitory concentration (GI50) amounted to 15 nM.
